Measured values published in ChEMBL document CHEMBL1201862, “PubChem BioAssay data set” (2004).
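Five concentrations, 48 hours, 96-well plates. The concentration for 50% growth inhibition is given as GI50.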 The source made the active and inactive calls. Cut-off read from the data, not from the text of the source: active = GI50 up to about 1.1 µM and inactive = higher.

What was measured:
Assay in all cases: growth of human tumour cells (NCI), 48 h
SF-268 = system: SF-268
SK-MEL-5 = system: SK-MEL-5
HL-60 = system: HL-60
SW-620 = system: SW-620
SNB-75 = system: SNB-75
Hs-578T = system: Hs-578T
CAKI-1 = system: CAKI-1
IGROV-1 = system: IGROV-1
SF-295 = system: SF-295
786-0 = system: 786-0
MDA-MB-231 = system: MDA-MB-231
TK-10 = system: TK-10
UACC-257 = system: UACC-257
UACC-62 = system: UACC-62
K562 = system: K562
SR = system: SR
ACHN = system: ACHN
NCI-H460 = system: NCI-H460
NCI-H23 = system: NCI-H23
SK-OV-3 = system: SK-OV-3
RXF 393 = system: RXF 393
MDA-MB-435 = system: MDA-MB-435
NCI-H226 = system: NCI-H226
PC-3 = system: PC-3
CCRF-CEM = system: CCRF-CEM
OVCAR-8 = system: OVCAR-8
HT-29 = system: HT-29
BT-549 = system: BT-549
MCF7 = system: MCF7
HOP-62 = system: HOP-62
T47D = system: T47D
SN12C = system: SN12C
NCI/ADR-RES = system: NCI/ADR-RES
HCT-15 = system: HCT-15
SF-539 = system: SF-539
M14 = system: M14
NCI-H522 = system: NCI-H522
COLO 205 = system: COLO 205
RPMI-8226 = system: RPMI-8226
HCT-116 = system: HCT-116
HCC 2998 = system: HCC 2998
OVCAR-3 = system: OVCAR-3
MDA-N = system: MDA-N
HOP-92 = system: HOP-92
KM12 = system: KM12
Malme-3M = system: Malme-3M
DU-145 = system: DU-145
SNB-19 = system: SNB-19
SK-MEL-2 = system: SK-MEL-2
OVCAR-4 = system: OVCAR-4
A549 = system: A549
EKVX = system: EKVX
SK-MEL-28 = system: SK-MEL-28
A498 = system: A498
OVCAR-5 = system: OVCAR-5
MOLT-4 = system: MOLT-4
U-251 = system: U-251
UO-31 = system: UO-31
LOX IMVI = system: LOX IMVI

CCCCOc1ccc(/C=C/C2=[N+](CCO)CCO2)cc1
GI50 (SF-268): > 100 µM (inactive)
GI50 (SK-MEL-5): 68.5 µM (inactive)
GI50 (HL-60): 21.7 µM (inactive)
GI50 (SW-620): 33.6 µM (inactive)
GI50 (SNB-75): 67.1 µM (inactive)
GI50 (Hs-578T): > 100 µM (inactive)
GI50 (CAKI-1): 67.5 µM (inactive)
GI50 (IGROV-1): 85.5 µM (inactive)
GI50 (SF-295): 48.5 µM (inactive)
GI50 (786-0): 54.1 µM (inactive)
GI50 (MDA-MB-231): 61.9 µM (inactive)
GI50 (TK-10): > 100 µM (inactive)
GI50 (UACC-257): > 100 µM (inactive)
GI50 (UACC-62): > 100 µM (inactive)
GI50 (K562): 24 µM (inactive)
GI50 (SR): 38 µM (inactive)
GI50 (ACHN): 91.6 µM (inactive)
GI50 (NCI-H460): 68.7 µM (inactive)
GI50 (NCI-H23): > 100 µM (inactive)
GI50 (SK-OV-3): > 100 µM (inactive)
GI50 (RXF 393): 17.9 µM (inactive)
GI50 (MDA-MB-435): > 100 µM (inactive)
GI50 (NCI-H226): 27.2 µM (inactive)
GI50 (PC-3): 68.4 µM (inactive)
GI50 (CCRF-CEM): 30.4 µM (inactive)
GI50 (OVCAR-8): 70.1 µM (inactive)
GI50 (HT-29): 17.6 µM (inactive)
GI50 (BT-549): > 100 µM (inactive)
GI50 (MCF7): 29.4 µM (inactive)
GI50 (HOP-62): > 100 µM (inactive)
GI50 (T47D): 30.5 µM (inactive)
GI50 (SN12C): 97.3 µM (inactive)
GI50 (NCI/ADR-RES): 78 µM (inactive)
GI50 (HCT-15): 51.9 µM
GI50 (SF-539): 21.7 µM (inactive)
GI50 (M14): 76.7 µM (inactive)
GI50 (NCI-H522): 21.5 µM (inactive)
GI50 (COLO 205): 24.7 µM (inactive)
GI50 (RPMI-8226): 26.8 µM (inactive)
GI50 (HCT-116): 39.8 µM (inactive)
GI50 (HCC 2998): 22.5 µM (inactive)
GI50 (OVCAR-3): 61.5 µM (inactive)
GI50 (MDA-N): > 100 µM (inactive)
GI50 (HOP-92): 44.3 µM (inactive)
GI50 (KM12): 34 µM (inactive)
GI50 (Malme-3M): 80 µM (inactive)
GI50 (DU-145): > 100 µM (inactive)
GI50 (SNB-19): > 100 µM (inactive)
GI50 (SK-MEL-2): > 100 µM (inactive)
GI50 (OVCAR-4): > 100 µM (inactive)
GI50 (A549): 55.3 µM (inactive)
GI50 (EKVX): > 100 µM (inactive)
GI50 (SK-MEL-28): > 100 µM (inactive)
GI50 (A498): > 100 µM (inactive)
GI50 (OVCAR-5): > 100 µM (inactive)
GI50 (MOLT-4): 53 µM (inactive)
GI50 (U-251): 34.4 µM (inactive)
GI50 (UO-31): 32.1 µM (inactive)

COc1ccccc1N1CCN(CCCCNC(=O)c2ccc([N+](=O)[O-])o2)CC1
GI50 (SF-268): 16.7 µM (inactive)
GI50 (SK-MEL-5): 6.75 µM (inactive)
GI50 (HL-60): 5.86 µM (inactive)
GI50 (SW-620): 8.22 µM (inactive)
GI50 (Hs-578T): 15.5 µM (inactive)
GI50 (CAKI-1): 13.4 µM (inactive)
GI50 (LOX IMVI): 1.12 µM (active)
GI50 (IGROV-1): 13.7 µM (inactive)
GI50 (SF-295): 11.6 µM (inactive)
GI50 (786-0): 6.82 µM (inactive)
GI50 (MDA-MB-231): 23.6 µM (inactive)
GI50 (TK-10): 5.9 µM (inactive)
GI50 (UACC-257): 4.1 µM (inactive)
GI50 (UACC-62): 5.93 µM (inactive)
GI50 (K562): 12.4 µM (inactive)
GI50 (SR): 5.61 µM (inactive)
GI50 (ACHN): 11.7 µM (inactive)
GI50 (NCI-H460): 3.43 µM (inactive)
GI50 (NCI-H23): 5.79 µM (inactive)
GI50 (SK-OV-3): 15.9 µM (inactive)
GI50 (RXF 393): 8.57 µM (inactive)
GI50 (MDA-MB-435): 3.36 µM (inactive)
GI50 (NCI-H226): 11.7 µM (inactive)
GI50 (PC-3): 13.6 µM (inactive)
GI50 (CCRF-CEM): 21.1 µM (inactive)
GI50 (OVCAR-8): 10.6 µM (inactive)
GI50 (HT-29): 2.74 µM (inactive)
GI50 (BT-549): 4.19 µM (inactive)
GI50 (MCF7): 4.75 µM (inactive)
GI50 (HOP-62): 5.18 µM (inactive)
GI50 (T47D): 14.3 µM (inactive)
GI50 (SN12C): 3.27 µM (inactive)
GI50 (NCI/ADR-RES): 20 µM (inactive)
GI50 (HCT-15): 3.48 µM
GI50 (SF-539): 6.1 µM (inactive)
GI50 (M14): 4.05 µM (inactive)
GI50 (NCI-H522): 2.69 µM (inactive)
GI50 (COLO 205): 2.38 µM (inactive)
GI50 (RPMI-8226): 19.1 µM (inactive)
GI50 (HCT-116): 10.3 µM (inactive)
GI50 (HCC 2998): 2.42 µM (inactive)
GI50 (OVCAR-3): 4.52 µM (inactive)
GI50 (MDA-N): 3.18 µM (inactive)
GI50 (HOP-92): 16.6 µM (inactive)
GI50 (KM12): 5.53 µM (inactive)
GI50 (Malme-3M): 2.81 µM (inactive)
GI50 (DU-145): 4.76 µM (inactive)
GI50 (SNB-19): 11.8 µM (inactive)
GI50 (SK-MEL-2): 4.97 µM (inactive)
GI50 (OVCAR-4): 12.5 µM (inactive)
GI50 (A549): 6.98 µM (inactive)
GI50 (EKVX): 16 µM (inactive)
GI50 (SK-MEL-28): 25.1 µM (inactive)
GI50 (A498): 9.79 µM (inactive)
GI50 (OVCAR-5): 15.1 µM (inactive)
GI50 (MOLT-4): 23.1 µM (inactive)
GI50 (U-251): 7.55 µM (inactive)
GI50 (UO-31): 10.4 µM (inactive)
